Data as given in patent publication US9243281B2, “Neuroprotective chemicals and methods for identifying and using same” (Board of Regents of The University of Texas System, priority 2013, dated 2016).

What was measured:
[1] = test system: NAD levels in doxorubicin-treated U2OS cells; experiment: NAD rebound assay in doxorubicin-treated cells (NAD/NADH Glo); assay type: cell-based; conditions: 0.5 μM doxorubicin 45 h
Method: FIG. 12. Five-point dose response curves (DRC) of all tested compounds in NAD rebound assay. […] Cellular NAD abundance was determined by NAD/NADH Glo assay kit.
Each chemical variant of P7C3 was co-incubated with doxorubicin on cultured U2OS cells at five doses (0.03 uM, 0.1 uM, 0.3 uM, 1 uM and 3 uM). After 45 hrs incubation, cells were assayed for intracellular levels of NAD (FIG. 12).
Assay was performed following the manufacturer's protocol. NAD/NADH-Glo reagent contains the NAD Cycling Enzyme that converts NAD+ to NADH. In the presence of NADH, the enzyme reductase reduces a proluciferin reductase substrate to form luciferin. Cells were grown in 96- or 384-well plates. 50 μl or 15 μl of NAD/NADH-Glo™ Detection Reagent were added to each well. The resulting luminescence signals were measured by Tecan plate reader or EnVison multimode plate reader (Perkin Elmer).

Human NAMPT = biological target: T1, Human NAMPT (Homo sapiens, UniProt P43490); experiment: in vitro NAMPT coupled-enzyme assay (NADH at OD340 nm); assay type: biochemical; conditions: for activation of recombinant NAMPT enzyme: coupled assay NAMPT, NMNAT, ADH; for NAMPT activation: relative reaction rate normalized by the control reaction run prior to compound addition, vehicle 0.98
T1 construct: made in house; host or cells: E. coli
Method: FIGS. 7A-7C. […] (FIG. 7A) P7C3-A20 was incubated at indicated concentrations in a reaction coupled with three enzymes; NAMPT, NMNAT, and ADH (Experimental Procedures). NAMPT activity was recorded for the indicated period of time at OD340 nm by measuring NADH appearance, leading to the indicated concentration-time plot. […] (FIG. 7B) Analysis of the activities of thirty P7C3 analogs was performed to assess their effects on NAMPT enzymatic activity. The reaction rate was calculated as the slope of the concentration-time curve. Relative reaction rate was normalized by the control reaction run prior to compound addition. Data represents the mean of experimental duplicates. Scatter graphs were plotted to compare the ability of compounds to activate NAMPT relative to their ability to compete away P7C3-S326 crosslinking (top scatter plot), ability to protect cells from doxorubicin-mediated toxicity (middle scatter plot), or ability to facilitate NAD restoration in doxorubicin-treated cells (bottom scatter plot). […] Data are expressed as mean±SD of duplicate independent assays.
The enzymatic activity of recombinant NAMPT was monitored in a coupled assay wherein nicotinamide conversion to NMN was followed by sequential production of NAD (via the NMNAT enzyme) and NADH (via alcohol dehydrogenase). To minimize variation, a control reaction was run in each assay prior to compound addition.
Briefly, NAMPT first converted nicotinamide to NMN, which was followed by sequential production of NAD via nicotinamide mononucleotide adenylyl-transferase (NMNAT). NAD was then reduced to NADH by alcohol dehydrogenase (Sigma) using alcohol as the substrate. The resulting NADH was monitored by OD340 nm. […] 10 mM stocks of P7C3 analogs in DMSO were further diluted in ethanol prior to applying to the reaction. To minimize variation, a control reaction was run in each assay prior to compound addition.

p70 (NAMPT) = biological target: T2, p70 (NAMPT) (Homo sapiens, UniProt P43490); experiment: binding competition for photo-crosslinking of P7C3-S326 to p70 in H2122 cells; conditions: 0.3 μM P7C3-S326 plus 5 μM competitor, p70 band intensity, P7C3-S326 alone compared with plus competitor, vehicle 1.0
T2 construct: endogenous in cells; host or cells: H2122 lung cancer cells
How it was run: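 Competition for photo-crosslinking: P7C3 analogs (5 uM) were added alongside the 0.3 μM P7C3-S326 probe to H2122 cells for 2 hours before 15 minutes of 306 nm UV irradiation. In-gel fluorescence of the p70 band after click labeling was normalized to DMSO.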

U2OS cells = experiment: doxorubicin toxicity (dox:tox) protection assay, Cell Titer Glo cell survival; assay type: cell-based; conditions: cultured U2OS cells
Source text: FIGS. 2A-2D. […] (FIG. 2A) Chemical structure of P7C3-S326. […] (FIG. 2C) Formulas used for calculating doxorubicin toxicity (dox:tox) protection activity. Protection activity is expressed by (Sinf−S0)/AC50 in the twelve-point dose response curve (DRC) corresponding to each compound, wherein both efficacy and potency of compounds were considered. Sinf represents the expected maximal protection. S0 is the baseline. […] In the photo-crosslinking assays, the p70 band intensity was quantified by Image J, and compared the sample of P7C3-S326 alone with that of P7C3-S326 plus competitor. Pearson correlation coefficient (r) and two tailed P value were determined by GraphPad Prism 6 and Spearman Rank Correlation (v1.0.1) software.
FIG. 10. Twelve-point dose response curves (DRC) of all tested compounds in doxorubicin toxicity protection assay. […] Cell viability was determined by Cell Titer Glo assay kit.
Cell survival assay was performed in 96-well plates using CellTiter-Glo Luminescent Cell Viability Assay kit (Promega) that measures cellular ATP content. The CellTiter-Glo reagent was diluted by adding 2 volumes of PBS containing 1% Triton X-100. 50 μl of diluted reagent was directly added to 100 μl of cell culture medium per well. Plates were incubated at room temperature for 10 minutes. Luminescence was recorded by Tecan […]luor Plus reader (Tecan). Cell survival was presented as the percentage of viable cells compared with untreated control, and mean±SD was calculated from duplicates. The dox:tox assay of P7C3 analogs was carried out in the HTS Core (University of Texas Southwestern Medical Center) using the EnVison multimode plate reader (Perkin Elmer).

[2] = test system: neurons in living animals; conditions: neurogenesis, MPTP model, concussive blast injury; cited from earlier work
[3] = test system: hippocampal neurogenesis (Dentate Gyrus); experiment: in vivo neurogenesis assay (BrdU+ cells in dentate gyrus); parameters: species or system mice; conditions: for Neurogenesis # BrdU+ Cells (X10E06)/mm3 Dentate Gyrus: living mice, vehicle (DMSO) 7.3
How it was run: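 New hippocampal cells were tracked by daily BrdU injections and anti-BrdU staining of brain sections. Adult mice (two per pool of ten compounds) got week-long intracerebroventricular infusion by mini-pump, dosed for mid-nanomolar exposure.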

[4] = mice; IP, IV or oral routes; cited from earlier work
[5] = mice and rats, concentrations well above those required to stimulate hippocampal neurogenesis; cited from earlier work
aged Fisher rats = conditions: cited from earlier work
[6] = test system: hippocampal neurogenesis (Dentate Gyrus); conditions: cited from earlier work

T2 sequence (P43490 whole entry): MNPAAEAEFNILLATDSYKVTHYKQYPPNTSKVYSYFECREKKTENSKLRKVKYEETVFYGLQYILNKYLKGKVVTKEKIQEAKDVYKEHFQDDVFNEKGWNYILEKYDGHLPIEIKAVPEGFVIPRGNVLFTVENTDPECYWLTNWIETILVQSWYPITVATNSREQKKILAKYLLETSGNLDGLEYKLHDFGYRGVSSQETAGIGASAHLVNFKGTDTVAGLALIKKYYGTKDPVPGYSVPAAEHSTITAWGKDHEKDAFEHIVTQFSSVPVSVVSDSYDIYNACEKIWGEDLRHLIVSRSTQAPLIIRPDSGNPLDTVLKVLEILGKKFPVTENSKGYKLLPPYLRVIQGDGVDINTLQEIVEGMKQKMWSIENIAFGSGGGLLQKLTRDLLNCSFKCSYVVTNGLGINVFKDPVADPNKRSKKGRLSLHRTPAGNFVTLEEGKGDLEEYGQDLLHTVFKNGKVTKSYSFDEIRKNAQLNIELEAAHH
T1 sequence (P43490 whole entry): as above

| Structure (SMILES) | NAMPT activation (Human NAMPT) | Binding competition (p70 (NAMPT)) | Neurogenesis # BrdU+ Cells (X10E06)/mm3 Dentate Gyrus [3] | other results |
| --- | --- | --- | --- | --- |
| COc1cccc(NCC(F)Cn2c3ccc(Br)cc3c3cc(Br)ccc32)n1 (racemic) [S243, N-(3-(3,6-dibromo-9H-carbazol-9-yl)-2-fluoropropyl)-6-methoxypyridin-2-amine] | 1.26 | 2.2 | – | rebound of NAD levels (NAD/NADH-Glo kit) [1]: NAD rebound; activation of recombinant NAMPT enzyme (Human NAMPT): more active than the (+)P7C3-S243 enantiomer |
| COc1cccc(NC[C@@H](F)Cn2c3ccc(Br)cc3c3cc(Br)ccc32)n1 [(+)-S243] | 1.13 | 4.2 | 10.0 (X10E06)/mm3 | protection from doxorubicin-mediated toxicity (dox:tox assay) (U2OS cells): considerably less active; activity in the three in vivo assays of neuroprotection [2]: far less active |
| OC(CNc1ccccc1)Cn1c2ccc(Br)cc2c2cc(Br)ccc21 (centres unmarked) [P7C3] | – | 2.6 | 15.0 (X10E06)/mm3 | half-life, volume of distribution and brain penetration [4]: favorable; toxicity on prolonged administration [5]: not overtly toxic to rodents; body weight relative to vehicle-treated controls (aged Fisher rats): maintained body weight; cognitive decline (aged Fisher rats): abrogation of cognitive decline; enhancement in BrdU-positive hippocampal neurons ([6]; BrdU pulsed one day, then P7C3 for a month): 500%; enhanced level of BrdU-positive neurons ([6]; week-long dose of P7C3): two-fold |
| COc1cccc(NCC(Cn2c3ccc(Br)cc3c3cc(Br)ccc32)OC)c1 (centres unmarked) [S13] | 1.21 | 1.7 | 11.6 (X10E06)/mm3 | – |
| COc1cccc(NCC(=O)Cn2c3ccc(Br)cc3c3cc(Br)ccc32)c1 [S3] | 1.06 | 2.3 | 9.2 (X10E06)/mm3 | – |
| Brc1ccc2c(c1)c1cc(Br)ccc1n2CCCNc1ccccc1 [S33] | 1.12 | 2.8 | 11.6 (X10E06)/mm3 | – |
| O=S(=O)(CC(F)Cn1c2ccc(Br)cc2c2cc(Br)ccc21)c1ccc(O)cc1 (centres unmarked) [S103] | 0.97 | 1.9 | 7.0 (X10E06)/mm3 | – |
| C#CCOc1ccc(C(=O)c2ccc(C(=O)NCC(F)Cn3c4ccc(Br)cc4c4cc(Br)ccc43)cc2)cc1 (centres unmarked) [S326, N-(3-(3,6-dibromo-9H-carbazol-9-yl)-2-fluoropropyl)-4-(4-(prop-2-yn-1-yloxy)benzoyl)benzamide] | 1.10 | – | – | protection from doxorubicin-mediated toxicity (dox:tox assay) (U2OS cells): active; activity in the in vivo neurogenesis assay ([3]; mouse, in vivo): active |
| NC(=O)Cn1c2ccc(Br)cc2c2cc(Br)ccc21 [S213] | 1.00 | 1.1 | 6.5 (X10E06)/mm3 | – |
| Nc1ccc[n+](CC(O)Cn2c3ccc(Br)cc3c3cc(Br)ccc32)c1 (centres unmarked) [S6] | – | 1.4 | 8.4 (X10E06)/mm3 | rebound of NAD levels (NAD/NADH-Glo kit) [1]: no rebound at all |
| CC(C)(C)OC(=O)NCC(F)Cn1c2ccc(Br)cc2c2cc(Br)ccc21 (centres unmarked) [S208] | 1.16 | 1.2 | 13.5 (X10E06)/mm3 | – |
| c1ccc2c(c1)CCc1ccccc1N2 [S212] | 1.04 | 1.0 | 10.3 (X10E06)/mm3 | – |
| Cc1cc2c(cn1)[nH]c1ccc(Br)cc12 [S226] | 0.96 | 1.9 | 12.8 (X10E06)/mm3 | – |
| COc1cccc(N(C)CC(F)Cn2c3ccc(Br)cc3c3cc(Br)ccc32)c1 (centres unmarked) [S11] | 1.21 | 2.0 | 12.8 (X10E06)/mm3 | – |
| COc1ccc(S(=O)(=O)CC(F)Cn2c3ccc(Br)cc3c3cc(Br)ccc32)cc1 (centres unmarked) [S83] | 1.01 | 1.0 | 12.5 (X10E06)/mm3 | – |
| N#Cc1[nH]c2ccc(Br)cc2c1N [S222] | 1.02 | 1.3 | 15.1 (X10E06)/mm3 | – |
| COc1cccc(NC[C@H](F)Cn2c3ccc(Br)cc3c3cc(Br)ccc32)n1 [(−)-S243, (S)—N-(3-(3,6-Dibromo-9H-carbazol-9-yl)-2-fluoropropyl)-6-methoxypyridin-2-amine] | 1.33 | 4.8 | 18.1 (X10E06)/mm3 | protection from doxorubicin-mediated toxicity (dox:tox assay) (U2OS cells): protective; activation of recombinant NAMPT enzyme (Human NAMPT): more active in stimulating NAMPT than the racemix mix; activity in the three in vivo assays of neuroprotection [2]: active |
| COCCOCCOc1ccc(NCC(F)Cn2c3ccc(Br)cc3c3cc(Br)ccc32)cc1 (centres unmarked) [S66] | 1.21 | 3.5 | 9.7 (X10E06)/mm3 | – |
| O=C(Cn1c2ccc(Br)cc2c2cc(Br)ccc21)NS(=O)(=O)c1ccccc1 [S230] | 1.02 | 1.0 | 15.3 (X10E06)/mm3 | – |
| CS(=O)(=O)NC(=O)Cn1c2ccc(Br)cc2c2cc(Br)ccc21 [S232] | 1.00 | 0.9 | 8.4 (X10E06)/mm3 | – |
| C#CCN(C)[C@H](C)Cc1ccccc1 [S117, Selegiline, reference compound] | – | 1.0 | 8.1 (X10E06)/mm3 | rebound of NAD levels (NAD/NADH-Glo kit) [1]: no rebound at all |
| Cl.NCC(F)Cn1c2ccc(Br)cc2c2cc(Br)ccc21 (centres unmarked) [S217] | 0.89 | 2.6 | 12.3 (X10E06)/mm3 | – |
